The results in this text go back to US20260125375A1 (Pfizer Inc., priority 2022, published 2026).

A word on the Kd: it is the free concentration of one partner at which half of the binding sites on the other are occupied at equilibrium, for simple one-to-one binding. A word on the EC50: it is the concentration at which the effect is half-maximal.

One assay addresses T1, WT CBL-B (36-427) (Homo sapiens, UniProt Q13191).
T1 construct: N-terminal biotinylated WT CBL-B (36-427) and C-CBL (46-435) were captured on a streptavidin (SA) coated sensor chip
Kind of assay: Surface Plasmon Resonance (SPR) assay, binding affinity and kinetics, CBL-B. As to conditions: SPR at 10° C., biotinylated WT CBL-B (36-427) on streptavidin chip; geometric mean; read-out: CBL-B SPR Kd (nM) GMean. The method in brief:
(§1)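 SPR kinetics at 10° C, run either single-cycle (0.001–1 μM, 3-fold, 6 points, 120 s on, >5400 s off) or multi-cycle (10 points, 2-fold, top 10 or 100 μM, 90 s on). Proteins were N-biotinylated CBL-B (36-427) and C-CBL (46-435) on SA surfaces, in pH 7.2 HEPES, 2% DMSO.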

Another assay deals with T2, C-CBL (46-435) (Homo sapiens, UniProt P22681).
T2 construct: N-terminal biotinylated WT CBL-B (36-427) and C-CBL (46-435) were captured on a streptavidin (SA) coated sensor chip
T2 sequence (P22681 46-435): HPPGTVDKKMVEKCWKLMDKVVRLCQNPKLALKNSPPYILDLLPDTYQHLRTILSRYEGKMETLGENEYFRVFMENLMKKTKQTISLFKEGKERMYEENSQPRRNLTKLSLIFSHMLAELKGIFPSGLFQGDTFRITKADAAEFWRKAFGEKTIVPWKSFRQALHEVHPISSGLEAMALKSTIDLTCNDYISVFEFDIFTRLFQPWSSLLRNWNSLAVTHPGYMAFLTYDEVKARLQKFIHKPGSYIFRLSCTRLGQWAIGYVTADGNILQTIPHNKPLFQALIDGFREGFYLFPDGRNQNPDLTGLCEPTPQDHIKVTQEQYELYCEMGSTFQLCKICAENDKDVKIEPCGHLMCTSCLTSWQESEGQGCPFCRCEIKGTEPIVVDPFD
The experiment in a line: Surface Plasmon Resonance (SPR) assay, binding affinity and kinetics, C-CBL. The settings on record: SPR at 10° C., biotinylated C-CBL (46-435) on streptavidin chip; geometric mean; read-out: C-CBL SPR Kd (nM) GMean. The method in brief: as §1

The next assay concerns the target T3, C-CBL (Homo sapiens, UniProt P22681).
T3 construct: endogenous in cells; host or cells: Jurkat HiBit-IL2 reporter cells, CBL-B knocked out by CRISPR
The experiment in a line: Jurkat HiBit-IL2 assay (CBL-B KO), reporter cell line expressing C-CBL only. The settings on record: geometric mean, read-out: CBL-B KO EC50 (nM) GMean. Type of assay: cell-based. The method in brief:
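IL-2 secretion was measured by HiBiT luminescence after 1 h compound exposure (0.1% DMSO) and 4 h TCR/CD28 stimulation (final anti-CD3 1 μg/ml, anti-CD28 2 μg/ml, 37 °C) of Jurkat reporters lacking c-CBL or CBL-B. EC50 came from fold-of-effect versus stimulated-only cells, as geometric means across tests.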

Where [1] appears, read: CBL-B KO (C-CBL only), anti-CD3/anti-CD28 stimulation 4 hours, Table 16a.
Where [2] appears, read: CBL-B KO (expressing C-CBL only), Table 16b (further repetition).

Read-outs that look alike come from different tables or passages of the source.

T1 sequence (Q13191 36-427): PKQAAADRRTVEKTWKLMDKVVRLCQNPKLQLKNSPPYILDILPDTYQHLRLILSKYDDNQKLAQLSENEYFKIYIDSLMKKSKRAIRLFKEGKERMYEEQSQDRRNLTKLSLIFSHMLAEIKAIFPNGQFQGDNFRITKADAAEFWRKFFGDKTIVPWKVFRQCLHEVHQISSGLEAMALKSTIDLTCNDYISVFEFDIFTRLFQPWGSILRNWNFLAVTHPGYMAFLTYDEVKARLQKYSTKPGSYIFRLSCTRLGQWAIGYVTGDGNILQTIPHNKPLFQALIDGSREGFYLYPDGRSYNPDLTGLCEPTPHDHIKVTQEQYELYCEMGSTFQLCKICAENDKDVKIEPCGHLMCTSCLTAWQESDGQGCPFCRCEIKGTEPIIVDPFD

Regarding `CC1CN(Cc2nc(C(F)(F)F)cc3c(-c4cccc(C5(Cc6nncn6C)COC5)c4)n[nH]c23)CCC1(F)F` (single isomer, unassigned) [Example C31, 7-{[(3ξ)-4,4-difluoro-3-methylpiperidin-1-yl]methyl}-3-(3-{3-[(4-methyl-4H-1,2,4-triazol-3-yl)methyl]oxetan-3-yl}phenyl)-5-(trifluoromethyl)-1H-pyrazolo[3,4-c]pyridine], the Kd at WT CBL-B (36-427) was 4.7 nM; at C-CBL (46-435) it was 133 nM. Further, the EC50 at C-CBL (setting [1]) came out at 1370 nM.

On to `C[C@H](N[C@@H]1CC[C@@H]1O)c1nc(C(F)(F)F)cc2c(-c3cccc([C@H](c4nncn4C)C4CCC4)c3)n[nH]c12` (single isomer, unassigned) [Example D28], for which the Kd at WT CBL-B (36-427) worked out at 0.4 nM; at C-CBL (46-435) it was 2.2 nM. At C-CBL (setting [1]), the EC50 turned out to be 4 nM.

Regarding `C[C@H](NC1CCCC1)c1nc(C(F)(F)F)cc2c(-c3cccc([C@H](c4nncn4C)C4CCC4)c3)n[nH]c12` (single isomer, unassigned) [Example C10], the results for the Kd on WT CBL-B (36-427) and at C-CBL (46-435) were 11.5 nM and 189 nM, respectively. Besides, the EC50 on C-CBL (setting [1]) was greater than 2310 nM.

With `C[C@H]1CCCN(Cc2nc(C(F)(F)F)cc3c(-c4cccc(C5(Cc6nncn6C)COC5)c4)n[nH]c23)C1` [Example C30, 7-{[(3S)-3-methylpiperidin-1-yl]methyl}-3-(3-{3-[(4-methyl-4H-1,2,4-triazol-3-yl)methyl]oxetan-3-yl}phenyl)-5-(trifluoromethyl)-1H-pyrazolo[3,4-c]pyridine], the Kd at WT CBL-B (36-427) came to 3 nM; on C-CBL (46-435), 35.9 nM. On C-CBL (setting [1]), the EC50 worked out at 232 nM.

As for `Cn1cnnc1CC1(c2cccc(-c3n[nH]c4c(CN[C@H]5CCC(F)(F)C5)nc(C(F)(F)F)cc34)c2)COC1` [Example C38, (1S)-3,3-difluoro-N-{[3-(3-{3-[(4-methyl-4H-1,2,4-triazol-3-yl)methyl]oxetan-3-yl}phenyl)-5-(trifluoromethyl)-1H-pyrazolo[3,4-c]pyridin-7-yl]methyl}cyclopentan-1-amine], the Kd at WT CBL-B (36-427) worked out at 7.5 nM; on C-CBL (46-435), 70.5 nM. The EC50 on C-CBL (setting [1]) was found to be 494 nM.

Consider `C[C@@H](N[C@@H]1CCOC1)c1nc(C(F)(F)F)cc2c(-c3cccc([C@H](c4nncn4C)C4CCC4)c3)n[nH]c12` (single isomer, unassigned) [Example D3], for which the Kd on WT CBL-B (36-427) was determined as 4 nM; on C-CBL (46-435), 124 nM. For the same compound, the values for the EC50 at C-CBL (setting [1]) and on C-CBL (setting [2]) were 472 nM and 333 nM, respectively.

For `CC(c1nc(C(F)(F)F)cc2c(-c3cccc(C4(Cc5nncn5C)COC4)c3)n[nH]c12)N1CCCCC1` (single isomer, unassigned) [Example C22, 3-(3-{3-[(4-methyl-4H-1,2,4-triazol-3-yl)methyl]oxetan-3-yl}phenyl)-7-[(1ξ)-1-(piperidin-1-yl)ethyl]-5-(trifluoromethyl)-1H-pyrazolo[3,4-c]pyridine], the values for the Kd at WT CBL-B (36-427) and on C-CBL (46-435) were 8.2 nM and 116 nM, respectively. For the same compound, on C-CBL (setting [1]), the EC50 came to 942 nM.

Take `C[C@@H](c1nc(C(F)(F)F)cc2c(-c3cccc(C4(Cc5nncn5C)COC4)c3)n[nH]c12)N1CC[C@@H](F)C1` (single isomer, unassigned) [Example D9]: the Kd on WT CBL-B (36-427) was found to be 8.3 nM; at C-CBL (46-435) it was 96 nM. The EC50 on C-CBL (setting [1]) came to 1770 nM.

As to `Cn1cnnc1CC1(c2cccc(-c3n[nH]c4ncc(C(F)(F)F)cc34)c2)COC1` [Example B3, 3-(3-{3-[(4-methyl-4H-1,2,4-triazol-3-yl)methyl]oxetan-3-yl}phenyl)-5-(trifluoromethyl)-1H-pyrazolo[3,4-b]pyridine], the Kd on WT CBL-B (36-427) came to 67.9 nM; on C-CBL (46-435), 861 nM. On C-CBL (setting [1]), the EC50 is 4060 nM.

`C[C@@H](N[C@H]1C[C@H](O)C1)c1nc(C(F)(F)F)cc2c(-c3cccc([C@H](c4nncn4C)C4CCC4)c3)n[nH]c12` (single isomer, unassigned) [Example C92]: the Kd was determined as 2.7 nM on WT CBL-B (36-427) and 39.5 nM on C-CBL (46-435). Further, the EC50 on C-CBL (setting [2]) was 525 nM.

For the compound `C[C@@H]1CCCN(Cc2nc(C(F)(F)F)cc3c(-c4cccc(C5(Cc6nncn6C)COC5)c4)n[nH]c23)C1` [Example C29, 7-{[(3R)-3-methylpiperidin-1-yl]methyl}-3-(3-{3-[(4-methyl-4H-1,2,4-triazol-3-yl)methyl]oxetan-3-yl}phenyl)-5-(trifluoromethyl)-1H-pyrazolo[3,4-c]pyridine], the results for the Kd at WT CBL-B (36-427) and at C-CBL (46-435) were 3.8 nM and 195 nM, respectively. Further, the half-maximal effective concentration (EC50) on C-CBL (setting [1]) amounted to 1320 nM.

As to `C[C@@H](N[C@@H]1CCC(F)(F)C1)c1nc(C(F)(F)F)cc2c(-c3cccc(C4(Cc5nncn5C)COC4)c3)n[nH]c12` (single isomer, unassigned) [Example C18], the Kd turned out to be 0.7 nM at WT CBL-B (36-427) and 6.2 nM at C-CBL (46-435). Also, the values for the EC50 on C-CBL (setting [1]) and on C-CBL (setting [2]) were 178 nM and 49 nM, respectively.

Take `C[C@@H](N[C@@H]1CCC[C@@H]1O)c1nc(C(F)(F)F)cc2c(-c3cccc([C@H](c4nncn4C)C4CCC4)c3)n[nH]c12` (single isomer, unassigned) [Example D16]: the Kd worked out at 3.6 nM on WT CBL-B (36-427) and 43.1 nM at C-CBL (46-435). The EC50 on C-CBL (setting [1]) was found to be 188 nM.

For the compound `Cn1cnnc1[C@@H](c1cccc(-c2n[nH]c3cnc(C(F)(F)F)cc23)c1)C1CCC1` [Example A1, 3-{3-[(R)-cyclobutyl(4-methyl-4H-1,2,4-triazol-3-yl)methyl]phenyl}-5-(trifluoromethyl)-1H-pyrazolo[3,4-c]pyridine], the Kd stood at 34.6 nM on WT CBL-B (36-427) and 931 nM at C-CBL (46-435). Moreover, the results for the EC50 at C-CBL (setting [1]) and on C-CBL (setting [2]) were greater than 5280 nM and 4500 nM, respectively.

Take `C[C@@H](NC1CCCC1)c1nc(C(F)(F)F)cc2c(-c3cccc([C@H](c4nncn4C)C4CCC4)c3)n[nH]c12` (single isomer, unassigned) [Example C11]: the Kd on WT CBL-B (36-427) is 0.9 nM; on C-CBL (46-435), 6.1 nM. For the same compound, the EC50 on C-CBL (setting [1]) was found to be 46 nM; at C-CBL (setting [2]), 32 nM.

With `C[C@H](N[C@H]1CCC(F)(F)C1)c1nc(C(F)(F)F)cc2c(-c3cccc(C4(Cc5nncn5C)COC4)c3)n[nH]c12` (single isomer, unassigned) [Example C12], the Kd at WT CBL-B (36-427) came to 0.8 nM; at C-CBL (46-435), 1.8 nM. Moreover, the results for the EC50 on C-CBL (setting [1]) and on C-CBL (setting [2]) were 25 nM and 16 nM, respectively.

For `C[C@H]1CN(Cc2nc(C(F)(F)F)cc3c(-c4cccc([C@H](c5nncn5C)C5CCC5)c4)n[nH]c23)CCO1` [Example C6, 3-{3-[(R)-cyclobutyl(4-methyl-4H-1,2,4-triazol-3-yl)methyl]phenyl}-7-{[(2S)-2-methylmorpholin-4-yl]methyl}-5-(trifluoromethyl)-1H-pyrazolo[3,4-c]pyridine], the Kd at WT CBL-B (36-427) is 4.4 nM; at C-CBL (46-435), 102 nM. In addition, the EC50 on C-CBL (setting [1]) was 807 nM.

As for `C[C@H]1CCCN(Cc2nc(C(F)(F)F)cc3c(-c4cccc([C@H](c5nncn5C)C5CCC5)c4)n[nH]c23)C1` [Example C7, 3-{3-[(R)-cyclobutyl(4-methyl-4H-1,2,4-triazol-3-yl)methyl]phenyl}-7-{[(3S)-3-methylpiperidin-1-yl]methyl}-5-(trifluoromethyl)-1H-pyrazolo[3,4-c]pyridine], the Kd was determined as 2.7 nM at WT CBL-B (36-427) and 47.7 nM at C-CBL (46-435). Further, the EC50 on C-CBL (setting [1]) is 519 nM.

Consider `CC(NC1CNC1)c1nc(C(F)(F)F)cc2c(-c3cccc(C4(Cc5nncn5C)COC4)c3)n[nH]c12` (single isomer, unassigned) [Example C27, N-{(1ξ)-1-[3-(3-{3-[(4-methyl-4H-1,2,4-triazol-3-yl)methyl]oxetan-3-yl}phenyl)-5-(trifluoromethyl)-1H-pyrazolo[3,4-c]pyridin-7-yl]ethyl}azetidin-3-amine], for which the Kd at WT CBL-B (36-427) turned out to be 8.7 nM; on C-CBL (46-435), 71 nM. In addition, the EC50 at C-CBL (setting [1]) was greater than 4300 nM.

`C[C@@H](N[C@H]1CC[C@@H]1O)c1nc(C(F)(F)F)cc2c(-c3cccc([C@H](c4nncn4C)C4CCC4)c3)n[nH]c12` (single isomer, unassigned) [Example D22]: the results for the Kd on WT CBL-B (36-427) and on C-CBL (46-435) were 1.5 nM and 9.8 nM, respectively. The EC50 on C-CBL (setting [1]) is 79 nM; on C-CBL (setting [2]), 91 nM.

Take `C[C@@H](N[C@H]1CCOC1)c1nc(C(F)(F)F)cc2c(-c3cccc([C@H](c4nncn4C)C4CCC4)c3)n[nH]c12` (single isomer, unassigned) [Example C3]: the Kd on WT CBL-B (36-427) was 5.6 nM; on C-CBL (46-435) it was 80.7 nM. Moreover, the EC50 at C-CBL (setting [1]) turned out to be 639 nM.
